Target: T1, N-formyl peptide receptor 2 (Homo sapiens, UniProt P25090)
T1 sequence (P25090 whole entry): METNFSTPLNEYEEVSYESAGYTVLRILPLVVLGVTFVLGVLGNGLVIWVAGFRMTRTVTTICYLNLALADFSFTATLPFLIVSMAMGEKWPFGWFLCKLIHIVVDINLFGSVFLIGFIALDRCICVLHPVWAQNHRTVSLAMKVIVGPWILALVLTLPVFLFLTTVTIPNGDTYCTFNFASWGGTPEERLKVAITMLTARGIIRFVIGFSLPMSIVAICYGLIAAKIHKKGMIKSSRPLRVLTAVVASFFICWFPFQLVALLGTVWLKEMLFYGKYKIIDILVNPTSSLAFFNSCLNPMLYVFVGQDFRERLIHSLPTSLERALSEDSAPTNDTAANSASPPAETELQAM
Assay: FLIPR: HEK-Gα16 cells stably expressing the human FPR2 receptor was utilized. Cells were plated into 384-well poly-D-lysine coated plates at a density of 18,000 cells per well one day prior to use. The growth media was DMEM medium supplemented with 10% fetal bovine serum (FBS), 1% antibiotic-antimycotic, 50 μg/ml hygromycin, and 400 μg/ml geneticin. On the day of the experiment, the cells were …

EC50: < 1 nM
SMILES: NC(=O)C1C(C(=O)Nc2ccc(Br)cc2)C2CCC1C21CC1 (single isomer, unassigned)

Source: ChEMBL document CHEMBL5726535, “Use of agonists of formyl peptide receptor 2 for treating ocular inflammatory diseases” (2019)
